Measured values from patent publication US20260265233A1, “BENZOTHIOPHENE DERIVATIVES AS RXFP1 AGONISTS” (BRISTOL-MYERS SQUIBB COMPANY, priority 2021, published 2026).

Molecular target: T1, human RXFP1 (Homo sapiens, UniProt Q9HBX9)
T1 construct: expressed in transfected cells
T1 sequence (Q9HBX9 1-757): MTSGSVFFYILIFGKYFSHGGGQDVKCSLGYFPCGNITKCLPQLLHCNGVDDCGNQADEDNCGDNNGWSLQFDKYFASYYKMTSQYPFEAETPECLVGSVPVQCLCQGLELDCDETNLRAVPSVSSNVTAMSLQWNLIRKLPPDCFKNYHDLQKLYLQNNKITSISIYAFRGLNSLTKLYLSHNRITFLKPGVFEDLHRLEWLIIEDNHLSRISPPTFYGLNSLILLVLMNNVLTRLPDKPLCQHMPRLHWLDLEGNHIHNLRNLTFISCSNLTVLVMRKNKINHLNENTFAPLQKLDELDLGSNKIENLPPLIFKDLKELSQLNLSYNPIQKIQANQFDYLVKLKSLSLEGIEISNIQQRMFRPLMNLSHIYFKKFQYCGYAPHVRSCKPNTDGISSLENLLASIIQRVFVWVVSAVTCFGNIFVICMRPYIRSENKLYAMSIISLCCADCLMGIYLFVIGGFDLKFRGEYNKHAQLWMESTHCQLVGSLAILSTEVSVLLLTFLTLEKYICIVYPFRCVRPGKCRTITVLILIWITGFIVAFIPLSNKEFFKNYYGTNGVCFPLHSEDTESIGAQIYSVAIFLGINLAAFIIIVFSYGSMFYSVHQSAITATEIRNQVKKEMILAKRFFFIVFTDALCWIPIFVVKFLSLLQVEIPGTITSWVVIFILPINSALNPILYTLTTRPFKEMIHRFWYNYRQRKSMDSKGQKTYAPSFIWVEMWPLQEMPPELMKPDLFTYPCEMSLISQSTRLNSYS
Assay: hRXFP1 HEK293 cAMP assay (HTRF)
Format: cell-based
Conditions: HEK293 cells stably expressing human RXFP1; 30 min at rt; intracellular cAMP by HTRF
Summary of the method: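 Agonism is measured as cAMP by HTRF, quantified from a standard curve via the 665/590 nm ratio and fitted with a four-parameter logistic equation. Compounds (0.010 nM to 50 μM final, 2% DMSO) were applied for 30 min at rt to human RXFP1-expressing HEK293 cells in assay buffer containing 0.5 mM IBMX.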

| Structure (SMILES) | EC50 [µM] |
| --- | --- |
| COc1ccc(-c2cc([C@H](OC(=O)NC3CCC3)C(F)(F)F)ccc2F)cc1C(=O)Nc1c(C(=O)Nc2ccc(F)c(C(F)(F)F)c2)sc2cc(C(F)(F)F)ccc12 [Example 22, (S)-2,2,2-trifluoro-1-(6-fluoro-3′-((2-((4-fluoro-3-(trifluoromethyl)phenyl)carbamoyl)-6-(trifluoromethyl)benzo[b]thiophen-3-yl)carbamoyl)-4′-methoxy-[1, 1′-biphenyl]-3-yl) ethyl cyclobutylcarbamate] | 0.0005 |
| COc1ccc(C(=O)N2CC(C)(C)C2)cc1C(=O)Nc1c(C(=O)Nc2ccc(F)c(C(F)(F)F)c2)sc2cc(C(F)(F)F)ccc12 [Example 27, 3-(5-(3,3-dimethylazetidine-1-carbonyl)-2-methoxybenzamido)-N-(4-fluoro-3-(trifluoromethyl)phenyl)-6-(trifluoromethyl) benzo[b]thiophene-2-carboxamide] | 1.72 |
| COc1cc(F)c(C(=O)N2CC(S(C)(=O)=O)C2)cc1C(=O)Nc1c(C(=O)Nc2ccc(F)c(C(F)(F)F)c2)sc2cc(C(F)(F)F)ccc12 [Example 28, 3-(4-fluoro-2-methoxy-5-(3-(methylsulfonyl)azetidine-1-carbonyl)benzamido)-N-(4-fluoro-3-(trifluoromethyl)phenyl)-6-(trifluoromethyl)benzo[b]thiophene-2-carboxamide] | 0.0487 |
| COc1ccc(C(=O)N2CC3(C2)CS(=O)(=O)C3)cc1C(=O)Nc1c(C(=O)Nc2ccc(F)c(C(F)(F)F)c2)sc2cc(C3CC3)ncc12 [Example 29, 6-cyclopropyl-3-(5-(2,2-dioxido-2-thia-6-azaspiro [3.3]heptane-6-carbonyl)-2-methoxybenzamido)-N-(4-fluoro-3-(trifluoromethyl)phenyl) thieno [3,2-c]pyridine-2-carboxamide] | 1.34 |
| COc1ccc(S(=O)(=O)N2CCC[C@@H](N)C2)cc1C(=O)Nc1c(C(=O)Nc2ccc(F)c(C(F)(F)F)c2)sc2cc(C(F)(F)F)ccc12 [Example 30, (R)-3-(5-((3-aminopiperidin-1-yl)sulfonyl)-2-methoxybenzamido)-N-(4-fluoro-3-(trifluoromethyl)phenyl)-6-(trifluoromethyl) benzo[b]thiophene-2-carboxamide] | 2.54 |
| COc1ccc(S(=O)(=O)N2CCC[C@@H](NCC(N)=O)C2)cc1C(=O)Nc1c(C(=O)Nc2ccc(F)c(C(F)(F)F)c2)sc2cc(C(F)(F)F)ccc12 [Example 31] | 3.28 |
| COc1ccc(C2CCCNCC2)cc1C(=O)Nc1c(C(=O)Nc2ccc(F)c(C(F)(F)F)c2)sc2cc(C(F)(F)F)ccc12 (stereo not drawn) [Example 39, 3-(5-(azepan-4-yl)-2-methoxybenzamido)-N-(4-fluoro-3-(trifluoromethyl)phenyl)-6-(trifluoromethyl)benzo[b]thiophene-2-carboxamide] | 2.8 |
| COc1ccc(C23CCC(C(C)(C)O)(CC2)CC3)cc1C(=O)Nc1c(C(=O)Nc2ccc(F)c(C(F)(F)F)c2)sc2cc(C(F)(F)F)ccc12 [Example 40, N-(4-fluoro-3-(trifluoromethyl)phenyl)-3-(5-(4-(2-hydroxypropan-2-yl)bicyclo [2.2.2]octan-1-yl)-2-methoxybenzamido)-6-(trifluoromethyl) benzo[b]thiophene-2-carboxamide] | 0.22 |
| COc1ccc(C#CCO)cc1C(=O)Nc1c(C(=O)Nc2ccc(F)c(C(F)(F)F)c2)sc2cc(C(F)(F)F)ccc12 [Example 42, N-(4-fluoro-3-(trifluoromethyl)phenyl)-3-(5-(3-hydroxyprop-1-yn-1-yl)-2-methoxybenzamido)-6-(trifluoromethyl)benzo[b]thiophene-2-carboxamide] | 0.467 |
| COc1ccc(/C=C\C(=O)O)cc1C(=O)Nc1c(C(=O)Nc2ccc(F)c(C(F)(F)F)c2)sc2cc(C(F)(F)F)ccc12 [Example 45, (Z)-3-(3-((2-((4-fluoro-3-(trifluoromethyl)phenyl)carbamoyl)-6-(trifluoromethyl)benzo[b]thiophen-3-yl)carbamoyl)-4-methoxyphenyl) acrylic acid] | 0.975 |
| COc1ccc(C2CC2C(=O)O)cc1C(=O)Nc1c(C(=O)Nc2ccc(F)c(C(F)(F)F)c2)sc2cc(C(F)(F)F)ccc12 (stereo not drawn) [Example 46, 2-(3-((2-((4-fluoro-3-(trifluoromethyl)phenyl)carbamoyl)-6-(trifluoromethyl)benzo[b]thiophen-3-yl)carbamoyl)-4-methoxyphenyl) cyclopropane-1-carboxylic acid] | 0.295 |
| COc1ccc(C2CC2CO)cc1C(=O)Nc1c(C(=O)Nc2ccc(F)c(C(F)(F)F)c2)sc2cc(C(F)(F)F)ccc12 (stereo not drawn) [Example 49, N-(4-fluoro-3-(trifluoromethyl)phenyl)-3-(5-(2-(hydroxymethyl)cyclopropyl)-2-methoxybenzamido)-6-(trifluoromethyl) benzo[b]thiophene-2-carboxamide] | 0.617 |
| COc1ccc(C2=NOC3CS(=O)(=O)CC23)cc1C(=O)Nc1c(C(=O)Nc2ccc(F)c(C(F)(F)F)c2)sc2cc(C(F)(F)F)ccc12 (stereo not drawn) [Example 52, 3-(5-(5,5-dioxido-3a, 4,6,6a-tetrahydrothieno[3,4-d]isoxazol-3-yl)-2-methoxybenzamido)-N-(4-fluoro-3-(trifluoromethyl)phenyl)-6-(trifluoromethyl)benzo[b]thiophene-2-carboxamide] | 0.166 |
| COC(=O)C1CC(c2ccc(OC)c(C(=O)Nc3c(C(=O)Nc4ccc(F)c(C(F)(F)F)c4)sc4cc(C(F)(F)F)ccc34)c2)=NO1 (stereo not drawn) [Example 57, methyl 3-(3-((2-((4-fluoro-3-(trifluoromethyl)phenyl)carbamoyl)-6-(trifluoromethyl)benzo[b]thiophen-3-yl)carbamoyl)-4-methoxyphenyl)-4,5-dihydroisoxazole-5-carboxylate] | 0.636 |
| COc1ccc(C2=NCC3(CCCCC3)O2)cc1C(=O)Nc1c(C(=O)Nc2ccc(F)c(C(F)(F)F)c2)sc2cc(C(F)(F)F)ccc12 [Example 58, N-(4-fluoro-3-(trifluoromethyl)phenyl)-3-(2-methoxy-5-(1-oxa-3-azaspiro[4.5]dec-2-en-2-yl)benzamido)-6-(trifluoromethyl)benzo[b]thiophene-2-carboxamide] | 0.612 |
| COc1ccc(-c2noc(C(C)(C)O)n2)cc1C(=O)Nc1c(C(=O)Nc2ccc(F)c(C(F)(F)F)c2)sc2cc(C(F)(F)F)ccc12 [Example 59, N-(4-fluoro-3-(trifluoromethyl)phenyl)-3-(5-(5-(2-hydroxypropan-2-yl)-1,2,4-oxadiazol-3-yl)-2-methoxybenzamido)-6-(trifluoromethyl) benzo[b]thiophene-2-carboxamide] | 0.216 |
| COc1ccc(N2CCC(NCCO)C2)cc1C(=O)Nc1c(C(=O)Nc2ccc(F)c(C(F)(F)F)c2)sc2cc(C(F)(F)F)ccc12 (stereo not drawn) [Example 66, N-(4-fluoro-3-(trifluoromethyl)phenyl)-3-(5-(3-((2-hydroxyethyl)amino)pyrrolidin-1-yl)-2-methoxy-benzamido)-6-(trifluoromethyl) benzo[b] thiophene-2-carboxamide] | 0.897 |
| COc1ccc(N2CCC(NCCS(C)(=O)=O)C2)cc1C(=O)Nc1c(C(=O)Nc2ccc(F)c(C(F)(F)F)c2)sc2cc(C(F)(F)F)ccc12 (stereo not drawn) [Example 67, N-(4-fluoro-3-(trifluoromethyl)phenyl)-3-(2-methoxy-5-(3-((2-(methylsulfonyl)ethyl)amino)pyrrolidin-1-yl)benzamido)-6-(trifluoromethyl) benzo[b] thiophene-2-carboxamide] | 1.29 |
| COc1ccc(N2CCC(NCCS(C)(=O)=O)C2)cc1C(=O)Nc1c(C(=O)Nc2ccc(F)c(C(F)(F)F)c2)sc2cc(C(F)(F)F)ccc12 (stereo not drawn) [Example 68, N-(4-fluoro-3-(trifluoromethyl)phenyl)-3-(2-methoxy-5-(3-((2-(methylsulfonyl)ethyl)amino)pyrrolidin-1-yl)benzamido)-6-(trifluoromethyl) benzo[b] thiophene-2-carboxamide] | 1.08 |
| COc1ccc(C2CCCN(CCS(C)(=O)=O)CC2)cc1C(=O)Nc1c(C(=O)Nc2ccc(F)c(C(F)(F)F)c2)sc2cc(C(F)(F)F)ccc12 (stereo not drawn) [Example 71, N-(4-fluoro-3-(trifluoromethyl)phenyl)-3-(2-methoxy-5-(1-(2-(methylsulfonyl)ethyl)azepan-4-yl)benzamido)-6-(trifluoromethyl) benzo[b] thiophene-2-carboxamide] | 2.71 |
| COc1ccc(C2CCCN(CCS(C)(=O)=O)CC2)cc1C(=O)Nc1c(C(=O)Nc2ccc(F)c(C(F)(F)F)c2)sc2cc(C(F)(F)F)ccc12 (stereo not drawn) [Example 74, N-(4-fluoro-3-(trifluoromethyl)phenyl)-3-(2-methoxy-5-(1-(2-(methylsulfonyl)ethyl)azepan-4-yl)benzamido)-6-(trifluoromethyl) benzo[b] thiophene-2-carboxamide] | 3.37 |
